From US11491105B2, “Methods of treating microbial infections, including mastitis” (priority 2013, dated 2022)

Legend:
[1] = tested on: Staphylococcus isolates (methicillin-sensitive and methicillin-resistant); test: Minimum bactericidal concentration determination (Example 1); format: cell-based; settings: for bactericidal activity (MBC testing): methicillin-sensitive and methicillin-resistant strains
Method: Following determination of the MIC using the 96 well MIC plate, a variation of the drop plate method was used to determine minimum bactericidal concentration (MBC) for each of the test compounds. These were analysed using samples taken from the MIC plate following incubation. For each compound, a 10 μL drop of each concentration equal to or higher than the MIC was pipetted onto Sheep Blood Agar in a clockwise manner (FIG. 3). Each concentration was pipetted in duplicate with duplicates being pipetted on an inner ring of drops. The plates were incubated at 37° C. overnight and assessed the following day for growth. The MBC was defined as the concentration at which 99.9% of colonies were eradicated, which was visually assessed by a lack of growth on the agar where the drop was placed. […] The MBC values for 50% and 90% of the isolates (MBC50 and MBC90) were calculated and assessed along with the MBC range in order to select compounds for further study.

[2] = tested on: Staphylococcus isolates (methicillin-sensitive and methicillin-resistant); test: Minimum inhibitory concentration assay (Example 1); format: cell-based; settings: methicillin-resistant isolates
Method: Forty-two isolates of Staphylococcus of varying species and strain type were collected from isolate collections. Biochemical testing including coagulase, latex agglutination testing for protein A, Vogues-Proskauer tests and resistance to polymyxin B were used to identify the species of Staphylococcus. All isolates were also screened for resistance to various antimicrobials commonly used for the treatment of infections. This was performed using the disk diffusion method and resistance standards as outlined by the CLSI. The following antimicrobials were used: amoxicillin-clavulanic acid (30 μg), cephalothin (30 μg), clindamycin (2 μg), enrofloxacin (5 μg), erythromycin (15 μg), gentamicin (10 μg), imipenem (10 μg), oxacillin (1 μg), penicillin G (10 units), tetracycline (30 μg), 1:19 trimethoprim-sulfamethoxazole (25 μg) and vancomycin (30 μg).
Minimum inhibitory concentration tests were performed according to CLSI Standards (CLSI 2012). 90 μL of one of the test compound solutions, or ampicillin, was added to the end column of a 96 well plate that contained 90 μL of CAMHB in each well. The solutions were then serially diluted across the row, leaving 2 columns for positive and negative controls (FIG. 2). A bacterial suspension was prepared by adding fresh colonies obtained from an overnight culture on Sheep Blood Agar (SBA) to a 9.1 g/L saline solution. This suspension was adjusted to a concentration of between 4×10^8 and 5×10^8 CFU/mL. Concentration of the suspension was determined by measuring optical density (OD) using a spectrophotometer at a wavelength of 600 nm where the correct concentration was determined to have an optical density of between 1.00 and 1.20. 1 mL of this suspension was added to 9 mL of saline before being added to all wells, excluding the negative control wells, in 10 μL volumes giving a final concentration of between 4×10^5 and 5×10^5 CFU/mL in each well. The tests were then incubated for 24 hours at 37° C. and then assessed both visually and using OD readings from a microplate reader at a wavelength of 600 nm. These tests were performed in duplicate but repeated if discrepancies were observed.
The minimum inhibitory concentration (MIC) was determined to be the lowest concentration of antibiotic that prevented growth of bacteria both visually and using OD readings. Direct statistical comparisons between the test compounds and ampicillin could not be performed in light of confidential information restrictions, such as restrictions on disclosure of information relating to the compound structure, such as molecular weight. Instead, MIC values were collated and used to determine the lowest concentration of each compound that was effective against 50% and 90% of isolates, referred to as the MIC50 and MIC90 respectively. These values as well as the range of MIC values were then used for direct comparisons between test compounds and for general comparisons with ampicillin.

MRSA 9 = test: Macrodilution time-kill assay; format: cell-based, Staphylococcus aureus; settings: 24 hours
Method: Due to the detection limit of the OD measurements, the time-kill assays were also performed in macrodilution. In 15 mL tubes, 9 mL volumes of the test compounds in CAMHB were prepared at one, four and eight times the MIC concentration and 9 mL volumes of ampicillin were prepared in CAMHB at one and four times the MIC. 1 mL of a 4 to 5×10^6 bacterial suspension (as prepared for MIC testing) was added to each of the tubes as well as a growth control tube containing only 9 mL of CAMHB. These tubes were incubated at 37° C. in an orbital shaker rotating at 100 rpm for 24 hours. At 0, 1, 4, 8, 12 and 24 hours after addition of the bacteria, 100 μL samples were removed from each tube and serial diluted in 9.1 g/L saline solution. The dilutions were then plated in duplicate onto plate count agar and incubated for 24 hours at 37° C. After incubation, viable counts were obtained from the number of colonies visible on the agar and these were used to calculate the number of CFU/mL at each time point. For the macrodilution time-kill analysis, only the ATCC 49775 reference strain and MRSA 9 were assessed in order to further investigate the antibacterial activity against methicillin-resistant strains. These macrodilution time-kill assays were independently repeated and bactericidal activity was defined as a ≥3 log decrease in the number of CFU/mL.

[3] = Residue depletion of LP1369 in milk of treated mastitis quarters (Example 9); set-up: species or system lactating dairy cows; settings: in vivo
Method: Data on concentrations of LP1369 in milk from 6 quarters for IVP 1 and IVP 2 treated at 6 occasions (6 consecutive milkings) after treatment was provided by the analytical laboratory at the School of Pharmacy, University of South Australia, Adelaide, SA, Australia. The limit of quantification (LoQ) of the method for LP1369 in milk was 0.088 mg/L. The Maximum Residues level (MRL) for LP1369 is 0.010 mg/kg according to the APVMA, December 2013, Agricultural and Veterinary Chemicals Code Instrument No. 4 (MRL Standard) 2012.
In milk samples where LP1369 levels were below the LoQ, LP1369 concentration was set to 0.0001 mg/L.
Therefore, the concentrations of LP1369 in whole milk were log-transformed before calculating means and standard deviations (weighted by the volume of milk produced by each animal) for each time point, using Microsoft Excel 2010.
The determination of the depletion of any substance from milk is affected by the size of the population studied. As the number of sampled cows in this study was small, the g′ factor (a factor that provides a 99% confidence interval so that results are likely to be representative of the population) was applied to the analysis. The possibility of dispersed data was minimised by fixing the g′ factor for a population of 20 animals.
The following assumptions were made. […]

CO[C@@H]1[C@@H](OC)[C@H](C)[C@@](O)(CC(=O)O)O[C@H]1[C@H](C)[C@H]1O[C@@]2(CC[C@@](C)([C@H]3CC[C@@](C)([C@@H]4O[C@@H]([C@H]5O[C@](C)(O)[C@H](C)C[C@@H]5C)C[C@@H]4O[C@@H]4C[C@H](OC)[C@@H](OC)[C@H](C)O4)O3)O2)C[C@H](O)[C@H]1C.N [LP 6315, Maduramicin]
strains against which bactericidal activity was exhibited more consistently [1]: methicillin-sensitive strains
MBC50 (rank among test compounds) ([1]; methicillin-resistant isolates): lowest MBC50 values
bactericidal activity (MBC testing) [1]: some bactericidal activity in lower concentrations
MIC50 and MIC90 values compared with ampicillin [2]: considerably lower than ampicillin
bactericidal or bacteriostatic (>=3 log decrease in CFU/mL = bactericidal) (MRSA 9; LP 6315: most concentrations): bacteriostatic
decrease in colonies (MRSA 9; four times the MIC): > 3 log10

CC[C@@H](C(=O)[C@@H](C)[C@@H](O)[C@H](C)CCc1ccc(C)c(O)c1C(=O)O)[C@H]1O[C@](CC)([C@H]2CC[C@](O)(CC)[C@H](C)O2)C[C@@H]1C [LP 1369, Lasalocid]
strains against which bactericidal activity was exhibited more consistently [1]: methicillin-sensitive strains
bactericidal activity (MBC testing) [1]: some bactericidal activity in lower concentrations
MBC50 (rank among test compounds) ([1]; methicillin-sensitive isolates): lowest MBC50 values
clearance from treated quarters with mastitis (in words) [3]: cleared rapidly
MIC50 and MIC90 values compared with ampicillin [2]: considerably lower than ampicillin
decrease in the number of viable bacteria (MRSA 9; all concentrations tested): < 3 log10
